{"source": "patent US5232633A", "about": "“Sulfoethyl carbonate wetting agents and their use in detergent compositions” (priority 1992, dated 1993)", "key": {"[1]": {"assay": "Critical micelle concentration by surface tension (Wilhemy plate method)", "type": "physicochemical", "source_text": "The CMC is defined as the concentration of a surfactant at which it begins to form micelles in solution rather than precipitate. Specifically, materials that contain both a hydrophobic group and a hydrophilic group, (such as surfactants), will tend to distort the structure of the solvent (i.e, water) they are in and, therefore, increase the free energy of the system. They therefore, concentrate at the surface, whereby orienting so that their hydrophobic groups are directed away from the solvent, the free energy of the solution is minimized. Another means of minimizing the free energy can be achieved by the aggregation of these surface-active molecules into clusters or micelles with their hydrophobic groups directed toward the interior of the cluster and their hydrophilic groups directed toward the solvent.\nThe value of the CMC is determined by surface tension measurements using the Wilhemy plate method. While not wishing to be bound by theory, it is believed that a low CMC is a measure of surface activity (i.e, lower CMC of one surfactant versus another indicates the surfactant with lower CMC is more surface active). In this regard, it is believed that lower CMC signifies that lesser amounts of a surfactant are required to provide the same surfactancy benefits as a surfactant with higher CMC."}, "[2]": {"assay": "Krafft point of 1% dispersion of surfactant in water", "type": "physicochemical", "conditions": "for Krafft Pt.: 1% dispersion in water; for Krafft point (in words): compared with SLI", "protocol": "The temperature at and above which surfactants begin to form micelles instead of precipitates is referred to as Krafft point (Tk) and at this temperature the solubility of an ionic surfactant becomes equal to its CMC.\nKrafft point was measured by preparing a 1% dispersion of the surfactant in water. If the surfactant was soluble at room temperature, the solution was cooled to 0° C. […] If it precipitated out, the solution was slowly warmed with stirring in a water bath. The temperature at which the precipitate dissolved was determined to be the Krafft point.\nIf the Krafft point was above room temperature, the solution was first heated rapidly to dissolve all the surfactant. It was then cooled until precipitation occurred, and was then slowly warmed to determine the Krafft point described above."}, "[3]": {"assay": "Foam height, Ross-Miles method", "type": "physicochemical", "conditions": "45° C., water with 120 ppm calcium hardness; for Foam Ht., 10 min Ht.: after 10 minutes"}, "[4]": {"assay": "Calcium ion sensitivity, modified Hart method", "type": "physicochemical", "conditions": "for Ca + 2 Needed for Prec.: titration with calcium ion solution, visual cloudiness endpoint", "protocol": "The surfactant solution was titrated with a calcium ion solution. The endpoint was determined by visual observation of the cloudiness of the surfactant solution."}, "[5]": {"assay": "Hydrolytic stability at pH 9, 40° C. by reverse phase HPLC", "type": "physicochemical", "conditions": "5×10^-4 M in NaHCO3 buffer with 5% CH3CN, 500 µM"}, "zein": {"test_system": "zein", "parameters": "species or system maize", "protocol": "Specifically, the lower the amount of zein protein dissolved, usually the milder a surfactant is. Conversely, the more zein dissolved, typically the more irritating the surfactant is. In order to test irritancy potential, a 1% solution of surfactant (30 mls) was added to 1.5 g zein and stirred at room temperature for 1 hr. Residual zein was collected and dried to constant weight. Differences between starting and residual weights were used to calculate % zein dissolved."}, "[6]": {"conditions": "1% solution of surfactant (30 mls), 1.5 g zein, room temperature, 1 hr"}}, "note": "Where two headings read alike, the source gives them in different places.", "data": [{"smiles": "CCCCCCCCCCCC(=O)OCCS(=O)(=O)O", "note": "[SLI, sodium lauroyl isethionate, reference compound]", "values": [{"measurement": "CMC", "setting": "[1]", "value": 6.2, "unit": "mM"}, {"measurement": "Krafft Pt.", "setting": "[2]", "value": 24, "unit": "°C"}, {"measurement": "Foam Ht., 10 min Ht.", "setting": "[3]", "value": "negligible"}, {"measurement": "Foam Ht., Initial Ht.", "setting": "[3]", "value": "negligible"}, {"measurement": "Ca + 2 Needed for Prec.", "setting": "[4]", "value": 51, "unit": "ppm"}, {"measurement": "Hydrolytic Stability, t 1/2", "setting": "[5]", "value": 24, "unit": "h"}]}, {"smiles": "CCCCCCCCCCC(C)OC(=O)OCCS(=O)(=O)O", "note": "(stereo not shown) [SE2DC, Sodium 2-sulfoethyl 2-dodecylcarbonate]", "values": [{"measurement": "CMC", "setting": "[1]", "value": "3.7 to 4.0", "unit": "mM"}, {"measurement": "Krafft Pt.", "setting": "[2]", "value": 0, "unit": "°C"}, {"measurement": "Foam Ht., 10 min Ht.", "setting": "[3]", "value": 160, "unit": "mm"}, {"measurement": "Foam Ht., Initial Ht.", "setting": "[3]", "value": 162, "unit": "mm"}, {"measurement": "% Zein Solub.", "setting": "zein; [6]", "value": 47, "unit": "%"}, {"measurement": "Ca + 2 Needed for Prec.", "setting": "[4]", "value": "> 2700", "unit": "ppm"}, {"measurement": "Hydrolytic Stability, t 1/2", "setting": "[5]", "value": 223, "unit": "h"}]}, {"smiles": "CCCCCCCCCCCCOCCOCCOCCOCCOC(=O)OCCS(=O)(=O)O", "note": "[SED(4EO)C, Sodium 2-sulfoethyl dodecyl (4EO) carbonate]", "values": [{"measurement": "Foam Ht., 10 min Ht.", "setting": "[3]", "value": 152, "unit": "mm"}, {"measurement": "Foam Ht., Initial Ht.", "setting": "[3]", "value": 158, "unit": "mm"}, {"measurement": "% Zein Solub.", "setting": "zein; [6]", "value": 17, "unit": "%"}]}, {"smiles": "CCCCCCCCCCC(C)OC(=O)OC(C)CS(=O)(=O)O", "note": "(stereo not shown) [SI2DC, Sodium 2-sulfoisopropyl 2-dodecyl carbonate]", "values": [{"measurement": "CMC", "setting": "[1]", "value": "2.6 to 2.8", "unit": "mM"}, {"measurement": "Krafft Pt.", "setting": "[2]", "value": 30, "unit": "°C"}, {"measurement": "Krafft point (in words)", "setting": "[2]", "value": "higher"}, {"measurement": "Foam Ht., 10 min Ht.", "setting": "[3]", "value": 149, "unit": "mm"}, {"measurement": "Foam Ht., Initial Ht.", "setting": "[3]", "value": 156, "unit": "mm"}, {"measurement": "% Zein Solub.", "setting": "zein; [6]", "value": 49, "unit": "%"}, {"measurement": "Ca + 2 Needed for Prec.", "setting": "[4]", "value": 2500, "unit": "ppm"}, {"measurement": "Hydrolytic Stability, t 1/2", "setting": "[5]", "value": "≈ 70 Days"}]}, {"smiles": "CCCCCCCCCCCCOC(=O)OC(C)CS(=O)(=O)O", "note": "(stereo not shown) [SIDC, Sodium 2-sulfoisopropyl dodecyl carbonate]", "values": [{"measurement": "CMC", "setting": "[1]", "value": 2.39, "unit": "mM"}, {"measurement": "Krafft Pt.", "setting": "[2]", "value": 15, "unit": "°C"}, {"measurement": "Foam Ht., 10 min Ht.", "setting": "[3]", "value": 161, "unit": "mm"}, {"measurement": "Foam Ht., Initial Ht.", "setting": "[3]", "value": 165, "unit": "mm"}, {"measurement": "% Zein Solub.", "setting": "zein; [6]", "value": 51, "unit": "%"}, {"measurement": "Ca + 2 Needed for Prec.", "setting": "[4]", "value": 2000, "unit": "ppm"}, {"measurement": "Hydrolytic Stability, t 1/2", "setting": "[5]", "value": 286, "unit": "h"}]}, {"smiles": "CCCCCCCCCCCCOC(=O)OCCS(=O)(=O)O.[Na]", "values": [{"measurement": "CMC", "setting": "[1]", "value": 2.52, "unit": "mM"}, {"measurement": "Krafft Pt.", "setting": "[2]", "value": 24, "unit": "°C"}, {"measurement": "Krafft point (in words)", "setting": "[2]", "value": "same Krafft point as the SLI"}, {"measurement": "Foam Ht., 10 min Ht.", "setting": "[3]", "value": 149, "unit": "mm"}, {"measurement": "% Zein Solub.", "setting": "zein", "value": 49, "unit": "%"}, {"measurement": "Calcium sensitivity (in words)", "setting": "[4]; compared with non-carbonated isethionate (SLI)", "value": "greater calcium insensitivity than the ester SLI"}, {"measurement": "Ca + 2 Needed for Prec.", "setting": "[4]", "value": 150, "unit": "ppm"}, {"measurement": "Hydrolytic Stability, t 1/2", "setting": "[5]", "value": 55.2, "unit": "h"}]}, {"smiles": "CCCCCCCCCCCCOC(=O)OC(CC)CS(=O)(=O)O", "note": "(stereo not shown) [S2DBC, Sodium 2-(1-sulfo)butyl dodecyl carbonate]", "values": [{"measurement": "CMC", "setting": "[1]", "value": 1.46, "unit": "mM"}, {"measurement": "Krafft Pt.", "setting": "[2]", "value": 0, "unit": "°C"}, {"measurement": "Foam Ht., 10 min Ht.", "setting": "[3]", "value": 142, "unit": "mm"}, {"measurement": "Foam Ht., Initial Ht.", "setting": "[3]", "value": 166, "unit": "mm"}, {"measurement": "% Zein Solub.", "setting": "zein; [6]", "value": 41, "unit": "%"}, {"measurement": "Ca + 2 Needed for Prec.", "setting": "[4]", "value": 725, "unit": "ppm"}, {"measurement": "Hydrolytic Stability, t 1/2", "setting": "[5]", "value": 1030, "unit": "h"}]}, {"smiles": "CCCCCCCCCCCCOCCOCCOC(=O)OCCS(=O)(=O)O", "note": "[SED(2EO)C, Sodium 2-sulfoethyl dodecyl (2EO) carbonate]", "values": [{"measurement": "Foam Ht., 10 min Ht.", "setting": "[3]", "value": 160, "unit": "mm"}, {"measurement": "Foam Ht., Initial Ht.", "setting": "[3]", "value": 165, "unit": "mm"}, {"measurement": "% Zein Solub.", "setting": "zein; [6]", "value": 25, "unit": "%"}]}]}
